Experimental data as given in US20240026300A1, “KIDNEY EXTRACELLULAR MATRIX-DERIVED SCAFFOLD FOR CULTURE AND TRANSPLANTATION OF KIDNEY ORGANOID AND METHOD OF PREPARING THE SAME” (CELLARTGEN INC., priority 2020, published 2024).

Test system: mouse kidney organoid
Experiment: Kidney fibrosis model by TGF-β treatment of kidney organoid
Format: cell-based
Description: A kidney fibrosis model was constructed using a kidney organoid cultured in the KEM hydrogel. To this end, kidney fibrosis was induced by treatment of a mouse kidney organoid with TGF-b. On day 9 of kidney organoid culture (subculture once on day 7 and additional culture for 2 days), the kidney organoids were treated with each concentration of TGF-β for 3 days and then analyzed on day 12. A kidney organoid not treated with TGF-β (NT, No treatment) was compared as a control group.

TGF-β
Acta2 and Colla1 (fibrosis markers) mRNA expression levels, qPCR (TGF-β for 3 days, analyzed day 12): increased in proportion to the increase in treatment concentration | kidney organoid morphology and growth (each concentration of TGF-β for 3 days, analyzed day 12): exhibited morphological changes and did not grow well | hydrogel and organoid appearance after TGF-β (organoid cultured in 7 mg/ml KEM hydrogel): the KEM hydrogel contracted and fibrosis-induced organoids agglomerated in a mass | Vimentin, COL1, α-SMA (fibrosis markers) expression, immunostaining (organoids in Matrigel and KEM scaffolds): expression of all fibrosis markers was increased
